pIC50: −log10 of the molar value. Several values for one entry are separate records, joined by “and”; a condition that tells them apart may be missing. Equal values may be shown once. Read-outs that look alike come from different tables or passages of the source.
Target: T1, LIN28A(16–187)–let-7 interaction (Homo sapiens, UniProt Q9H9Z2)
T1 construct: LIN28A(16–187) or LIN28B(24–111); pET19a or pMAL vector) (cleaved yes); made in house; host or cells: Escherichia coli BL21(DE3)
T1 sequence (Q9H9Z2 16-187): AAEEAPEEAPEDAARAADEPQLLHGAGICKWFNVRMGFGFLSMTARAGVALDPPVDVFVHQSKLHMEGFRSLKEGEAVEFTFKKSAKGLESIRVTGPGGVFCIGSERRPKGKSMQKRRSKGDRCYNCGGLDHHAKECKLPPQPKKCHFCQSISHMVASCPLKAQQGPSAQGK
Test: Electrophoretic mobility shift assay (EMSA), disruption of LIN28–let-7 complex
Assay type: binding
Details: for inhibition at 75 µM: read-out: inhibition of the LIN28–let-7 interaction measured in EMSA; for pIC50: concentration-dependent EMSA, some values estimated, read-out: IC50 in dose–response EMSA; for inhibition of LIN28–let-7 complex formation in concentration-dependent EMSA (in words): dose–response EMSA
Protocol: Inhibition of the LIN28–let-7 complex was evaluated by electrophoretic mobility shift assays. Mixtures containing compound at indicated concentrations, LIN28A(16–187) or LIN28B(24–111), and recombinant ribonuclease inhibitor (TaKaRa Bio) were incubated at room temperature for 2 h. The reaction buffer contained 50 mM TRIS, pH 7.5, 100 mM NaCl, 10 mM β-mercaptoethanol, 50 μM ZnCl2, 2% DMSO, 0.01% Tween-20 and 12% glycerol. Cy-3-fluorophore labeled RNA, (pre-E let-7f-1-Cy3, Mus musculus, […]-Cy3, purchased from IDT) was added to the reaction and incubated for further 15 min. The final concentrations were as follows: 10 nM LIN28A or 200 nM LIN28B, 5 nM RNA. Of each mixture, 10 μL was analyzed on a nondenaturing PAGE (5.3% acrylamide TAE PAGE for full-length LIN28 and 10% acrylamide TAE PAGE for analysis of the CSD) prerun for 1 h without sample and run for 1 h at 220 V at 4 °C in 0.25× TAE buffer. Gels were imaged using a ChemiDoc MP instrument (Bio-Rad Laboratories). Band intensities were analyzed using ImageJ and inhibition was quantified by calculation of the ratio of free RNA fluorescence to the fluorescence of the protein–RNA complex, and normalization to free RNA and LIN28–let-7 complex controls. The intensity ratio was analyzed by nonlinear regression fit in GraphPad Prism to determine the IC50 values.

[1] = single concentration of 75 μM, 75 µM

For `N=C1CC=CC=C1C1=C(N)C(=O)N(c2ccc(O)c(C(=O)O)c2)[C@@H]1c1ccc([N+](=O)[O-])cc1` [Compound 23], the “inhibition of the LIN28–let-7 interaction measured in EMSA” value (shortened to “inhibition … in EMSA”) (single concentration of 75 μM) was “inactive” and the “inhibition … in EMSA” value [1] was “none of these aforementioned enantiomerically pure molecules were active”.
Work on `O=C(C1=C(O)C(=O)N(c2cccc(-c3ccccc3)c2)C1c1ccc([N+](=O)[O-])cc1)c1ccc(C(F)(F)F)cc1` (stereo not shown) [Compound 39] yielded an inhibition at 75 µM (single concentration of 75 μM) of 40%.
For `O=C(C1=C(O)C(=O)N(c2ccc(O)c(C(=O)O)c2)C1c1ccc2cn[nH]c2c1)c1ccccc1` (stereo not shown) [Compound 7], the pIC50 was 4.47 and the inhibition at 75 µM (single concentration of 75 μM) was 70.7%.
With `O=C(O)c1cc(N2C(=O)c3c(c(-c4ccccc4)nn3Cc3ccccc3)C2c2ccc([N+](=O)[O-])cc2)ccc1O` (stereo not shown) [Compound 15] the “inhibition … in EMSA” value (single concentration of 75 μM) was “inactive”.
With `O=C(C1=C(O)C(=O)N(c2ccc(O)c(C(=O)O)c2)C1c1ccc([N+](=O)[O-])cc1)c1ccccc1` (stereo not shown) [Compound 2] the “inhibition … in EMSA” value (single concentration of 75 μM) was “not active”.
`O=C(C1=C(O)C(=O)N(c2cccc(-c3ccccc3)c2)C1c1ccc([N+](=O)[O-])cc1)c1ccc(F)cc1` (stereo not shown) [Compound 32] showed an inhibition at 75 µM (single concentration of 75 μM) of 76%.
With `O=C(C1=C(O)C(=O)N(c2cccc(-c3ccccc3)c2)C1c1ccc([N+](=O)[O-])cc1)c1ccc([N+](=O)[O-])c(O)c1` (stereo not shown) [Compound 34] the inhibition at 75 µM was 49%.
In the case of `Nc1ccc(C2C(C(=O)c3ccccc3)=C(O)C(=O)N2c2ccc(O)c(C(=O)O)c2)cc1` (stereo not shown) [Compound 10], the pIC50 was > 4.82 and 4.82 to 5.30 and the inhibition at 75 µM (single concentration of 75 μM) was 84.1%.
`O=C(C1=C(O)C(=O)N(c2cccc([N+](=O)[O-])c2)[C@H]1c1ccc([N+](=O)[O-])cc1)c1ccccc1` [Compound 20] was tested, and the “inhibition … in EMSA” value (single concentration of 75 μM) was “none of these aforementioned enantiomerically pure molecules were active”.
Compound `Cn1cccc1C(=O)C1=C(O)C(=O)N(c2cccc(-c3ccccc3)c2)C1c1ccc([N+](=O)[O-])cc1` (stereo not shown) [Compound 37] has an inhibition at 75 µM (single concentration of 75 μM) of 75%.
With `O=C(O)c1cc(N2C(=O)c3nn(Cc4ccccc4)c(-c4ccccc4)c3C2c2ccc([N+](=O)[O-])cc2)ccc1O` (stereo not shown) [Compound 14] the “inhibition … in EMSA” value (single concentration of 75 μM) was “inactive”.
In the case of `O=C(C1=C(O)C(=O)N(c2ccc(O)c(C(=O)O)c2)[C@H]1c1ccc([N+](=O)[O-])cc1)c1ccc(Cl)cc1` [Compound 17], the “inhibition … in EMSA” value (single concentration of 75 μM) was “none of these aforementioned enantiomerically pure molecules were active”.
Work on `O=C(C1=C(O)C(=O)N(c2ccc3c(c2)oc2ccccc23)C1c1ccc([N+](=O)[O-])cc1)c1ccc(Br)cc1` (stereo not shown) [Compound 46] yielded an inhibition at 75 µM (single concentration of 75 μM) of 86%.
With `O=C(C1=C(O)C(=O)N(c2ccc(O)c(C(=O)O)c2)C1c1ccc2[nH]nnc2c1)c1ccccc1` (stereo not shown) [Compound 6] the pIC50 was 4.70 and ~4.70 and the inhibition at 75 µM (single concentration of 75 μM) was 95.4%.
`O=C(C1=C(O)C(=O)N(c2cccc(-c3ccccc3)c2)C1c1ccc([N+](=O)[O-])cc1)c1ccccc1F` (stereo not shown) [Compound 33] gave an inhibition at 75 µM (single concentration of 75 μM) of 98%.
`O=C(C1=C(O)C(=O)N(c2cccc(-c3ccccc3)c2)C1c1ccc([N+](=O)[O-])cc1)c1ccc(Br)cc1` (stereo not shown) [Compound 30] gave an inhibition at 75 µM (single concentration of 75 μM) of 73%.
`O=C(C1=C(O)C(=O)N(c2ccc3c(c2)oc2ccccc23)C1c1ccc([N+](=O)[O-])cc1)c1ccco1` (stereo not shown) [Compound 49] was tested, and the “inhibition of LIN28–let-7 complex formation in concentration-dependent EMSA (in words)” value was “best inhibitory activities among the evaluated molecules” and the inhibition at 75 µM (single concentration of 75 μM) was 95%.
In the case of `O=C(C1=C(O)C(=O)N(CCCc2ccccc2)C1c1ccc([N+](=O)[O-])cc1)c1ccccc1` (stereo not shown) [Compound 12], the pIC50 was > 4.82 and 4.82 to 5.30, the “inhibition … in EMSA” value [1] was 77% and the inhibition at 75 µM (single concentration of 75 μM) was 76.5%.
`O=C(C1=C(O)C(=O)N(c2cccc(-c3ccccc3)c2)C1c1ccc([N+](=O)[O-])cc1)C1CCC1` (stereo not shown) [Compound 26] showed an inhibition at 75 µM (single concentration of 75 μM) of 8%.
In the case of `O=C(C1=C(O)C(=O)N(c2ccc(O)c(C(=O)O)c2)C1c1ccc([N+](=O)[O-])cc1)c1ccccn1` (stereo not shown) [Compound 4], the pIC50 was 4.72 and ~4.72.
With `O=C(C1=C(O)C(=O)N(c2cccc(-c3ccccc3)c2)C1c1ccc([N+](=O)[O-])cc1)c1ccco1` (stereo not shown) [Compound 35] the pIC50 was roughly 4.35 and the inhibition at 75 µM (single concentration of 75 μM) was 87%.
`O=C(C1=C(O)C(=O)N(c2ccc3oc4ccccc4c3c2)C1c1ccc([N+](=O)[O-])cc1)c1ccco1` (stereo not shown) [Compound 44] showed an inhibition at 75 µM (single concentration of 75 μM) of 90%.
For `O=C(O)c1cc(N2C(=O)C(O)=C(Cc3ccccc3)[C@H]2c2ccc([N+](=O)[O-])cc2)ccc1O` [Compound 19], the “inhibition … in EMSA” value (single concentration of 75 μM) was “none of these aforementioned enantiomerically pure molecules were active”.
With `O=C(O)c1cc(N2C(=O)C(O)=C(Cc3ccccc3)[C@@H]2c2ccc([N+](=O)[O-])cc2)ccc1O` [Compound 18] the “inhibition … in EMSA” value (single concentration of 75 μM) was “none of these aforementioned enantiomerically pure molecules were active”.
`O=C(C1=C(O)C(=O)N(c2cccc(-c3ccccc3)c2)C1c1ccc([N+](=O)[O-])cc1)C1CCCCC1` (stereo not shown) [Compound 24] showed an inhibition at 75 µM (single concentration of 75 μM) of 49%.
`O=C(O)c1cc(N2C(=O)C(O)=C(c3nccs3)C2c2ccc([N+](=O)[O-])cc2)ccc1O` (stereo not shown) [Compound 5] was tested, and the pIC50 was 4.49, the “inhibition … in EMSA” value (single concentration of 75 μM) was “active” and the inhibition at 75 µM (single concentration of 75 μM) was no less than 60%.
Compound `O=C(C1=C(O)C(=O)N(c2ccc3oc4ccccc4c3c2)C1c1ccc([N+](=O)[O-])cc1)c1ccccc1` (stereo not shown) [Compound 40] has an inhibition at 75 µM (single concentration of 75 μM) of 94%.
With `Cc1ccc(C(=O)C2=C(O)C(=O)N(c3ccc(O)c(C(=O)O)c3)C2c2ccc([N+](=O)[O-])cc2)cc1` (stereo not shown) [Compound 3] the pIC50 was 4.48 and the inhibition at 75 µM (single concentration of 75 μM) was no less than 60%.
For `O=C(C1=C(O)C(=O)N(c2ccc3c(c2)oc2ccccc23)C1c1ccc([N+](=O)[O-])cc1)c1ccccc1` (stereo not shown) [Compound 45], the “inhibition of LIN28–let-7 complex formation in concentration-dependent EMSA (in words)” value was “best inhibitory activities among the evaluated molecules” and the inhibition at 75 µM (single concentration of 75 μM) was 97%.
In the case of `O=C(C1=C(O)C(=O)N(c2ccc(O)c(C(=O)O)c2)[C@@H]1c1ccc([N+](=O)[O-])cc1)c1ccc(Cl)cc1` [Compound 16], the “inhibition … in EMSA” value (single concentration of 75 μM) was “none of these aforementioned enantiomerically pure molecules were active”.
For `COc1ccc(C(=O)C2=C(O)C(=O)N(c3cccc(-c4ccccc4)c3)C2c2ccc([N+](=O)[O-])cc2)cc1` (stereo not shown) [Compound 31], the inhibition at 75 µM (single concentration of 75 μM) was 87%.
For `O=C(C1=C(O)C(=O)N(c2ccc3oc4ccccc4c3c2)C1c1ccc([N+](=O)[O-])cc1)c1ccc(Br)cc1` (stereo not shown) [Compound 41], the inhibition at 75 µM (single concentration of 75 μM) was 53%.
With `O=C(C1=C(O)C(=O)N(c2ccc(O)c(C(=O)O)c2)C1c1ccc2cnccc2c1)c1ccccc1` (stereo not shown) [Compound 9] the pIC50 was > 4.82 and ~5.30 and the inhibition at 75 µM (single concentration of 75 μM) was 99.9%.
`COc1ccc(CN/C(=C2\C(=O)C(=O)N(c3ccc(O)c(C(=O)O)c3)C2c2ccc([N+](=O)[O-])cc2)c2ccccc2)cc1` (stereo not shown) [Compound 13] was tested, and the pIC50 was 4.59, the “inhibition … in EMSA” value (single concentration of 75 μM) was “active” and the inhibition at 75 µM (single concentration of 75 μM) was 102%.
Work on `COc1ccc(C(=O)C2=C(O)C(=O)N(c3ccc4oc5ccccc5c4c3)C2c2ccc([N+](=O)[O-])cc2)cc1` (stereo not shown) [Compound 42] yielded an inhibition at 75 µM (single concentration of 75 μM) of 74%.
For `O=C(C1=C(O)C(=O)N(c2cccc([N+](=O)[O-])c2)[C@@H]1c1ccc([N+](=O)[O-])cc1)c1ccccc1` [Compound 21], the “inhibition … in EMSA” value (single concentration of 75 μM) was “none of these aforementioned enantiomerically pure molecules were active”.
Work on `O=C(C1=C(O)C(=O)N(c2ccc3c(c2)oc2ccccc23)C1c1ccc([N+](=O)[O-])cc1)c1ccc(F)cc1` (stereo not shown) [Compound 48] yielded an inhibition at 75 µM (single concentration of 75 μM) of 93%.
For `Cc1ccc(C(=O)C2=C(O)C(=O)N(c3cccc(-c4ccccc4)c3)C2c2ccc([N+](=O)[O-])cc2)o1` (stereo not shown) [Compound 36], the inhibition at 75 µM (single concentration of 75 μM) was 83%.
Compound `O=C(C1=C(O)C(=O)N(c2cccc(-c3ccccc3)c2)C1c1ccc([N+](=O)[O-])cc1)c1nccs1` (stereo not shown) [Compound 38] has an inhibition at 75 µM (single concentration of 75 μM) of 8%.
`O=C(C1=C(O)C(=O)N(c2ccc3oc4ccccc4c3c2)C1c1ccc([N+](=O)[O-])cc1)c1ccc(F)cc1` (stereo not shown) [Compound 43] gave an inhibition at 75 µM (single concentration of 75 μM) of 60%.
`COc1ccc(C(=O)C2=C(O)C(=O)N(c3ccc4c(c3)oc3ccccc34)C2c2ccc([N+](=O)[O-])cc2)cc1` (stereo not shown) [Compound 47] gave an inhibition at 75 µM (single concentration of 75 μM) of 87%.
For `NC1=C(C(=O)c2ccccc2)[C@@H](c2ccc([N+](=O)[O-])cc2)N(c2ccc(O)c(C(=O)O)c2)C1=O` [Compound 22], the “inhibition … in EMSA” value (single concentration of 75 μM) was “inactive” and the “inhibition … in EMSA” value [1] was “none of these aforementioned enantiomerically pure molecules were active”.

From paper PMC10726440, “N-Biphenyl Pyrrolinones and Dibenzofurans as RNA-Binding Protein LIN28 Inhibitors Disrupting the LIN28–Let-7 Interaction” (ACS Medicinal Chemistry Letters, 2023)
